Values of other authors in PMC6601333 (Biochemical and biophysical research communications, 2019).

Row | Compound | inhibition of HIV-2 PR, fold worse than for HIV-1 PR (HIV-2 PR; relative to HIV-1 PR) | inhibition of HIV-2 PR (in words) (HIV-2 PR) | inhibition of HIV-1 PR (in words) (wild type HIV-1 PR)
1 | CC(C)CN(C[C@@H](O)[C@H](Cc1ccccc1)NC(=O)O[C@H]1CCOC1)S(=O)(=O)c1ccc(N)cc1 [APV, amprenavir] | 19 fold |  | 
2 | CC(C)CN(C[C@@H](O)[C@H](Cc1ccccc1)NC(=O)O[C@H]1CO[C@H]2OCC[C@H]21)S(=O)(=O)c1ccc(N)cc1 [DRV, darunavir] |  | effective inhibitors | effective inhibitors
3 | CC(C)(C)NC(=O)[C@@H]1C[C@@H]2CCCC[C@@H]2CN1C[C@@H](O)[C@H](Cc1ccccc1)NC(=O)[C@H](CC(N)=O)NC(=O)c1ccc2ccccc2n1 [SQV, saquinavir] |  | effective inhibitors | effective inhibitors
